# From patent US20190350895A1, “PHOTOCHROMATIC MODULATION WITH FLUORESCEIN FOR THE TREATMENT OF PHOTO-OCULODYNIA AND BLEPHAROSPASM” (Baylor College of Medicine, priority 2016, published 2019)
# Tests used:
# [1] = system: patients with essential blepharospasm; experiment: Jankovic rating scale (JRS) sum score, severity plus frequency of eyelid spasms, before and immediately after lens placement; assay type: in vivo, human; conditions: sum of severity (0-4) and frequency (0-4) scores immediately after lens placement
# Procedure: (§1) All patients in the study have an established diagnosis of essential blepharospasm currently managed with botulinum toxin injections. Prior to treatment with the fluorescein dye, patients are evaluated for their blink rate as determined by the number of blinks per minute. Patients are also evaluated using the Jankovic rating scale which has 2 components: 1. The severity of the eyelid spasms are rated from 0-4 (0=no spasms, 4=severe incapacitating spasms) and, 2. The frequency of spasms are rated from 0-4 (0=no spasms, 4=persistent eye closure). The sum of the severity score and the frequency score is then computed. Patients are then fitted with a scleral contact lens with normal saline solution mixed with fluorescein dye placed in the fluid reservoir. The blink rate and JRS sum score are then assessed immediately after placement of the lens.
# [2] = system: patients with essential blepharospasm; experiment: Blink rate before and immediately after placement of a scleral contact lens with fluorescein dye in the fluid reservoir; assay type: in vivo, human; conditions: immediately after placement of scleral lens with saline mixed with fluorescein dye
# Procedure: as §1
structure (smiles),measurement,setting,value
O=C1OC2(c3ccc(O)cc3Oc3cc(O)ccc32)c2ccccc21 [fluorescein],Post JRS,"[1]; Patient 1, pre JRS 7",1
same,Post JRS,"[1]; Patient 2, pre JRS 6",3
same,Post JRS,"[1]; Patient 3, pre JRS 6",4
same,Post JRS,"[1]; Patient 4, pre JRS 7",4
same,Post JRS,"[1]; Patient 5, pre JRS 7",3
same,Post blink-rate,"[2]; Patient 1, pre blink-rate 80",10 blinks per minute
same,Post blink-rate,"[2]; Patient 2, pre blink-rate 50",20 blinks per minute
same,Post blink-rate,"[2]; Patient 3, pre blink-rate 60",40 blinks per minute
same,Post blink-rate,"[2]; Patient 4, pre blink-rate 70",35 blinks per minute
same,Post blink-rate,"[2]; Patient 5, pre blink-rate 70",49 blinks per minute
